Results on 11 compounds are retold here after patent US12319701B2, “Antagonists of the muscarinic acetylcholine receptor M4” (priority 2019, dated 2025).

The structures appear in SMILES notation.

One assay deals with T1, Human M4 (Homo sapiens, UniProt P08173).
T1 construct: expressed in transfected cells; host or cells: CHO-K1 (ATCC), stably co-expressing chimeric G protein Gqi5
T1 sequence (P08173 1-479): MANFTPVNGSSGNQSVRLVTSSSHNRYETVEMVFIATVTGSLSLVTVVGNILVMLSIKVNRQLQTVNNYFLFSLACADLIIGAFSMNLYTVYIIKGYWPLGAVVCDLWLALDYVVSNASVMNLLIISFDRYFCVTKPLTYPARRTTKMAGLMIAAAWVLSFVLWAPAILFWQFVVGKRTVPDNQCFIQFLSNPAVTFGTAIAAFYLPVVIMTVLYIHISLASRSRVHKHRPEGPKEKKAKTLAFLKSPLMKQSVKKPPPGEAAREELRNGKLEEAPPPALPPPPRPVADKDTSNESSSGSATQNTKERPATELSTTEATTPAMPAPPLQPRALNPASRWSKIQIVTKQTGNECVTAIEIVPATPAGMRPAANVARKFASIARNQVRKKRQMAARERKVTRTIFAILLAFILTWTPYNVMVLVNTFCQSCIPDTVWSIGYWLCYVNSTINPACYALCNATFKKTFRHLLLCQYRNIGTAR
Description: mAChR M4 cell-based functional assay (calcium flux, Fluo-4, M4/Gqi5/CHO-K1 cells). The following applies: for remaining activity at 30 µM: CHO-K1, read-out: Human M4 Emin (%), % ACh maximum at 30 μM. How it is done:
Human or rat M4 cDNA, along with the chimeric G protein Gqi5, were transfected into Chinese hamster ovary (CHO-K1) cells purchased from the American Type Culture Collection using Lipofectamine2000. M4/Gqi5/CHO cells were grown in Ham's F-12 medium containing 10% heat-inactivated fetal bovine serum (FBS), 20 mM HEPES, 500 μg/mL 418 sulfate, and 200 μg/mL Hygromycin B.
For high throughput measurement of agonist-evoked increases in intracellular calcium, CHO-K1 cells stably expressing muscarinic receptors were plated in growth medium lacking 418 and hygromycin at 15,000 cells/20 μL/well in Greiner 384-well black-walled, tissue culture (TC)-treated, clear-bottom plates (VWR). Cells were incubated overnight at 37° C. and 5% CO2. The next day, cells were washed using an ELX 405 (BioTek) with assay buffer; the final volume was then aspirated to 20 μL. Next, 20 μL of a 2.3 μM stock of Fluo-4/acetoxymethyl ester (Invitrogen, Carlsbad, CA), prepared as a 2.3 mM stock in DMSO and mixed in a 1:1 ratio with 10% (w/v) Pluronic F-127 and diluted in assay buffer, was added to the wells and the cell plates were incubated for 50 min at 37° C. and 5% CO2. Dye was removed by washing with the ELX 405 and the final volume was aspirated to 20 μL. Compound master plates were formatted in a 10 point concentration-response curve (CRC) format (1:3 dilutions) in 100% DMSO with a starting concentration of 10 or 1 mM using a BRAVO liquid handler (Agilent). Test compound CRCs were then transferred to daughter plates (240 nL) using the Echo acoustic plate reformatter (Labcyte, Sunnyvale, CA) and then diluted into assay buffer (40 μL) to a 2× stock using a Thermo Fisher Combi (Thermo Fisher Scientific, Waltham, MA).
Calcium flux was measured using the Functional Drug Screening System (FDSS) 6000 or 7000 (Hamamatsu Corporation, Tokyo, Japan) as an increase in the fluorescent static ratio. Compounds were applied to cells (20 μL, 2×) using the automated system of the FDSS at 2 seconds into the protocol and the data were collected at 1 Hz. At 143 s, 10 μL of an EC20 concentration of the muscarinic receptor agonist acetylcholine was added (5×), followed by the addition of 12 μL of an EC80 concentration of acetylcholine at the 268 s time point (5×). Agonist activity was analyzed as a concentration-dependent increase in calcium mobilization upon compound addition. Positive allosteric modulator activity was analyzed as a concentration-dependent increase in the EC20 acetylcholine response. Antagonist activity was analyzed as a concentration-dependent decrease in the ECK) acetylcholine response; for the purposes of the tables herein, an IC50 (inhibitory concentration 50) was calculated as a concentration-dependent decrease of the response elicited by an ECK) concentration of acetylcholine. Concentration-response curves were generated using a four-parameter logistical equation in XLFit curve fitting software (IDBS, Bridgewater, NJ) for Excel (Microsoft, Redmond, WA) or Prism (GraphPad Software, Inc., San Diego, CA) or the Dotmatics software platform (Dotmatics, Bishop's Stortford, UK).
Compounds were synthesized as described above. Activity (IC50 and Emin) was determined in the mAChR M4 cell-based functional assay as described above and the data are shown in Table 2.

Assay [1] deals with catalepsy induced by the DA receptor antagonist haloperidol. As to the kind of experiment: Reversal of haloperidol-induced catalepsy by scopolamine in mice. In kind it is in vivo. From the text: Furthermore, haloperidol-induced catalepsy, a model of parkinsonian motor disability, is reduced in M4 knockout mice as compared to wild-type controls. […] The reversal by scopolamine was uncommonly robust and more pronounced than we observe with agents targeting a number of other targets being evaluated for potential antiparkinsonian effects, including metabotropic glutamate (mGlu) receptors mGlu4 or mGlu5, A2A adenosine receptors, and NMDA receptors. […] Taken together with the extensive studies of M4 modulation of basal ganglia and motor function, these studies provide compelling evidence that M4 is the dominant mAChR subtype involved in the antiparkinsonian effects of non-selective mAChR antagonists and provide support for discovery and development of selective M4 antagonists for treatment of neurodegenerative disease such as PD, dystonia, tardive dyskinesia and other movement disorders.

Consider `[2H]C([2H])(C1CCOCC1)N1C[C@H]2C[C@H](Nc3nnc(-c4cc(F)ccc4F)c4sccc34)C[C@H]2C1` [compound 18, 7-(2,5-difluorophenyl)-N-((3aR,5s,6aS)-2-((tetrahydro-2H-pyran-4-yl)methyl-d2)octahydrocyclopenta[c]pyrrol-5-yl)thieno[2,3-d]pyridazin-4-amine], for which, on Human M4, the IC50 was 3 nM and the remaining activity at 30 µM worked out at 3%.

For the compound `[2H]C([2H])(C1CCOCC1)N1C[C@H]2C[C@H](Nc3nnc(-c4cc(F)ccc4C)c4sccc34)C[C@H]2C1` [compound 19, 7-(5-fluoro-2-methylphenyl)-N-((3aR,5s,6aS)-2-((tetrahydro-2H-pyran-4-yl)methyl-d2)octahydrocyclopenta[c]pyrrol-5-yl)thieno[2,3-d]pyridazin-4-amine], at Human M4, the IC50 came out at 1.4 nM and the remaining activity at 30 µM came to 3%.

For `FC1(F)CCN(c2nnc(N[C@H]3C[C@@H]4CN(CC5CCOCC5)C[C@@H]4C3)c3ccsc23)CC1` [compound 20, 7-(4,4-difluoropiperidin-1-yl)-N-((3aR,5s,6aS)-2-((tetrahydro-2H-pyran-4-yl)methyl)octahydrocyclopenta[c]pyrrol-5-yl)thieno[2,3-d]pyridazin-4-amine], at Human M4, the IC50 was determined as 5.64 nM and the remaining activity at 30 µM turned out to be 3%.

Regarding `C[C@H]1CCCN(c2nnc(N[C@H]3C[C@@H]4CN(CC5CCOCC5)C[C@@H]4C3)c3ccsc23)C1` [compound 21, 7-((S)-3-methylpiperidin-1-yl)-N-((3aR,5s,6aS)-2-((tetrahydro-2H-pyran-4-yl)methyl)octahydrocyclopenta[c]pyrrol-5-yl)thieno[2,3-d]pyridazin-4-amine], on Human M4, the IC50 was 15.1 nM and the remaining activity at 30 µM turned out to be 4%.

Consider `FC1(F)CCN(c2nnc(N[C@H]3C[C@@H]4CN(CC5CCOCC5)C[C@@H]4C3)c3c2CCCC3)CC1` [compound 22, 4-(4,4-difluoropiperidin-1-yl)-N-((3aR,5s,6aS)-2-((tetrahydro-2H-pyran-4-yl)methyl)octahydrocyclopenta[c]pyrrol-5-yl)-5,6,7,8-tetrahydrophthalazin-1-amine], for which, on Human M4, the IC50 is 14.6 nM and the remaining activity at 30 µM was 3%.

In the case of `Fc1ccc(F)c(-c2nnc(N[C@H]3C[C@@H]4CN(CC5CCOCC5)C[C@@H]4C3)c3c2CCCC3)c1` [compound 23, 4-(2,5-difluorophenyl)-N-((3aR,5s,6aS)-2-((tetrahydro-2H-pyran-4-yl)methyl)octahydrocyclopenta[c]pyrrol-5-yl)-5,6,7,8-tetrahydrophthalazin-1-amine], on Human M4, the half-inhibitory concentration (IC50) came out at 5.43 nM and the remaining activity at 30 µM amounted to 3%.

`Fc1ccccc1-c1nnc(N[C@H]2C[C@@H]3CN(CC4CCOCC4)C[C@@H]3C2)c2c1CCCC2` [compound 24, 4-(2-fluorophenyl)-N-((3aR,5s,6aS)-2-((tetrahydro-2H-pyran-4-yl)methyl)octahydrocyclopenta[c]pyrrol-5-yl)-5,6,7,8-tetrahydrophthalazin-1-amine]: on Human M4, the IC50 came to 6.2 nM and the remaining activity at 30 µM is 3%.

`Fc1cccc(-c2nnc(N[C@H]3C[C@@H]4CN(CC5CCOCC5)C[C@@H]4C3)c3c2CCCC3)c1` [compound 25, 4-(3-fluorophenyl)-N-((3aR,5s,6aS)-2-((tetrahydro-2H-pyran-4-yl)methyl)octahydrocyclopenta[c]pyrrol-5-yl)-5,6,7,8-tetrahydrophthalazin-1-amine]: on Human M4, the IC50 was 9.04 nM and the remaining activity at 30 µM turned out to be 3%.

On to `Fc1ccc(-c2nnc(N[C@H]3C[C@@H]4CN(CC5CCOCC5)C[C@@H]4C3)c3c2CCCC3)cc1` [compound 26, 4-(4-fluorophenyl)-N-((3aR,5s,6aS)-2-((tetrahydro-2H-pyran-4-yl)methyl)octahydrocyclopenta[c]pyrrol-5-yl)-5,6,7,8-tetrahydrophthalazin-1-amine], for which, on Human M4, the half-inhibitory concentration (IC50) came to 58.9 nM and the remaining activity at 30 µM was determined as 3%.

Consider `[2H]C([2H])(C1CCOCC1)N1C[C@H]2C[C@H](Nc3nnc(-c4cc(F)ccc4F)c4ccccc34)C[C@H]2C1` [compound 27, 4-(2,5-difluorophenyl)-N-((3aR,5s,6aS)-2-((tetrahydro-2H-pyran-4-yl)methyl-d2)octahydrocyclopenta[c]pyrrol-5-yl)phthalazin-1-amine], for which, on Human M4, the IC50 was determined as 12 nM and the remaining activity at 30 µM is 3%.

Turning to `CN1[C@@H]2C[C@@H](OC(=O)[C@H](CO)c3ccccc3)C[C@H]1[C@@H]1O[C@@H]12` [scopolamine], in assay [1] (M4 KO mice), the “Reduction of haloperidol-induced catalepsy” value is reported as “ineffective in reducing catalepsy”. Besides, the “Reversal of haloperidol-induced catalepsy” value in assay [1] (WT mice) is recorded as “completely reversed”.
